Data published in US8007737B2, “Use of antioxidants to prevent oxidation and reduce drug degradation in drug eluting medical devices” (Wyeth, priority 2004, dated 2011).
Read-outs that look alike come from different tables or passages of the source.

Tests used:
[1] = test system: human coronary artery smooth muscle cells; test: Anti-proliferative activity in synchronized cultured cells stimulated with two percent fetal bovine serum; assay type: cell-based; conditions: for effect on the anti-proliferative activity of rapamycin: topotecan zero to three hundred nanomolar, etoposide zero to eight hundred nanomolar, Panzem zero to 100 micromolar
Excerpt: (§1) The multiple curves represent various concentrations of topotecan ranging from zero to three hundred nanomolar concentrations.
(§2) The multiple curves represent various concentrations of etoposide ranging from zero to eight hundred nanomolar concentrations.
The multiple curves represent various concentrations of Panzem® ranging from zero to 100 micromolar concentrations.

cell viability = test: Cell viability assay; assay type: cell-based
Excerpt: as §1, §2

tumor cell lines = conditions: Woo et al. 2002; cited from earlier work
[2] = test system: human coronary artery smooth muscle cell proliferation; test: In vitro cell culture study of coronary artery smooth muscle cell proliferation; assay type: cell-based
Excerpt: FIG. 51 is a graph of the inhibition of coronary artery smooth muscle cells by trichostatin A in a cell culture study.

[3] = Drug content (% label claim) of sirolimus solutions with antioxidants, HPLC assay
Procedure: Screening experiments were performed to evaluate the solubility of various antioxidants in […] (THF) solutions containing sirolimus and the percentage of antioxidant required to prevent oxidation of sirolimus alone and in a basecoat polymeric matrix. THF is the solvent in which sirolimus may be dissolved. It is important to note that other solvents may be utilized. Two sets of controls were utilized. Control #1 comprises solutions of THF and sirolimus and/or polymers with no antioxidant, and Control #2 comprises solutions of THF and sirolimus and/or polymers, wherein the THF contains a label claim of 250 ppm of BHT as a stabilizer from the vendor of THF. In other words, the BHT is an added constituent of the THF solvent to prevent oxidation of the solvent. All percentages are given as weight/volume.
Table 11, shown below, identifies the samples for evaluation. All percentages are given as weight/volume. The samples in Table 11 contain no polymer. Table 12, also shown below, identifies the samples for evaluation with the solutions now comprising polymers, including PBMA and PEVA as described herein.
(60° C.). The samples were evaluated after five (5) days utilizing a drug testing assay for silolimus. In the exemplary embodiment, a HPLC assay was utilized.
Additional samples were tested under ambient conditions, rather than at 60° C., and using the same compositions; however, the test period was expanded to seven weeks.

[4] = Percent drug content change on coated cobalt-chromium 18 mm stent; assay type: physicochemical; conditions: 0.02 weight percent BHT per total basecoat solids; 8 weeks and 12 weeks, ambient conditions (25° C.)
Excerpt: Referring to FIG. 75, there is illustrated in graphical format, the results of the same drug screening as described above with the solution applied to a cobalt-chromium, 18 mm stent. In this test, two sets of solution samples were utilized, one with sirolimus and polymer solution containing the antioxidant and one with sirolimus and polymer solution containing no antioxidant. The antioxidant utilized was 0.02 weight percent BHT per total basecoat solids.
The test was utilized to determine the percent drug content change over a time period of 0 to 12 weeks under two conditions; namely, 40° C. with 75 percent relative humidity, and ambient conditions (25° C.).

[5] = test system: human coronary artery smooth muscle cell survival; conditions: concentrations up to 30,000.00 nanomolar
Excerpt: In vitro cytotoxicity tests or assays may be utilized to determine if drugs, agents and/or compounds are potentially toxic and the level of toxicity. Essentially, in vitro cytotoxicity assays determine acute necrotic effects by a drug causing direct cellular damage. The idea behind these assays is that toxic chemicals affect basic functions of cells which are common to all cells. […] There are a number of different assays that may be utilized. In the present invention, the cytotoxicity assay utilized is based upon the measurement of cellular metabolic activity. A reduction in metabolic activity is an indication of cellular damage. Tests that can measure metabolic function measure cellular ATP levels or mitochondrial activity via MTS metabolism. FIG. 69 is a graphical representation of the results of an MTS assay of Panzem®.

[6] = In vivo release kinetics from polymeric stent coatings, porcine pharmacokinetics studies
Excerpt: The topcoat is two hundred micro grams. […] Cladribine (2-chlorodeoxyadenosine or 2-CdA) is the 2-chloro-2′-deoxy derivative of the purine nucleoside, adenosine. Cladribine is resistant to degradation by adenosine deaminase, one of two intracellular adenine nucleotide regulatory enzymes, found in most cells. The other enzyme, 5′-nucleotidase, is present in variable amounts in different cell types (Carson et al., 1983). […] Thus, in cells such as leukocytes, which contain a high ratio (>0.04) of deoxycytidine kinase to 5′-nucleotidase, 2-CdA and its subsequent metabolites will tend to accumulate in pharmacological concentrations (Carson et al., 1983). Such high levels of a nucleoside triphosphate are known to inhibit the enzyme ribonucleotide reductase in rapidly dividing cells, thus preventing synthesis of deoxynucleotides required for DNA synthesis.
FIG. 61 is a graphical representation of the in vivo release kinetics of cladribine from a polymeric coating on Bx Velocity® stents, available from Cordis Corporation, implanted in a Yorkshire pig. […] The total weight of the topcoat is three hundred micrograms.
(§3) The basecoat is applied to Bx Velocity® stents and implanted into Yorkshire pigs.
as §3

[7] = test system: human smooth muscle cells; test: Cladribine Example: PDGF-stimulated cell proliferation, cell count on day six; assay type: cell-based; conditions: from IC50 values
Procedure: To assess the ability of cladribine to prevent cell proliferation, human smooth muscle or endothelial cells (Clonetics, Walkersville, Md.) were seeded at a density of 2000 cells/cm^2 (approximately 3600 cells/well) into each well of 12-well plates and cultured with 1.5 ml of growth medium containing five percent fetal calf serum (FCS). After twenty-four hours, the growth medium was changed and fresh medium containing 10 ng/ml platelet-derived growth factor AB (PDGF AB; LIFE Technologies), as well as various concentrations of cladribine (0.001-10,000 nM) were added with triplicate wells. Medium was replaced with fresh cladribine-containing medium after three days. On day six, cells were detached by trypsinization to yield a cell suspension, lightly centrifuged to pellet and then counted manually using a Neubauer hemocytometer system. Cell viability was assessed by trypan blue exclusion.

[8] = test system: human coronary artery smooth muscle cells; test: Anti-proliferative activity in non-synchronized cultured cells stimulated with two percent fetal bovine serum; assay type: cell-based; conditions: for effect on the anti-proliferative activity of rapamycin: non-synchronized cells, mycophenolic acid zero to one thousand nanomolar, cladribine zero to nine hundred nanomolar
Excerpt: The multiple curves represent various concentrations of mycophenolic acid ranging from zero to one thousand nanomolar concentrations.
FIG. 58 illustrates, in graphical format, the anti-proliferative activity of cladribine in non-synchronized cultured human coronary artery smooth muscle cells stimulated with two percent fetal bovine serum.
The multiple curves represent various concentrations of cladribine ranging from zero to nine hundred nanomolar concentrations.

[9] = Drug concentration in liquid formulations by liquid chromatography / HPLC; assay type: physicochemical
Excerpt: In accordance with exemplary embodiments of the present invention, a series of liquid formulations were developed for the local or regional delivery of water insoluble compounds such as sirolimus and its analogs, including CCI-779, ABT-578 and everolimus, through weeping balloons and catheter injection needles. […] These liquid formulations increase the apparent solubility of the pharmacologically active but water insoluble compounds by two to four orders of magnitude as compared to the solubility limits of the compounds in water. These liquid formulations rely on the use of a very small amount of organic solvents such as Ethanol (typically less than two percent) and a larger amount of safe amphiphilic (of or relating to a molecule having a polar, water soluble group attached to a non-polar, water insoluble […]) excipients such as polyethylene glycol (PEG 200, PEG 400) and vitamin E TPGS to enhance the solubility of the compounds. These liquid formulations of highly water insoluble compounds are stable and readily flowable at room temperature. Certain excipients, such as Vitamin E TPGS and BHT may be utilized to enhance the storage stability of sirolimus compounds through their anti-oxidation properties. […]

## CC[C@@]1(O)C(=O)OCc2c1cc1n(c2=O)Cc2cc3c(CN(C)C)c(O)ccc3nc2-1 [topotecan]
[1]
  effect on the anti-proliferative activity of rapamycin: increases the percent inhibition of rapamycin alone
Cell viability; concentrations up to one micromolar
  cytotoxicity: non-cytotoxic

## CC(/C=C/C(=O)NO)=C\[C@@H](C)C(=O)c1ccc(N(C)C)cc1 [trichostatin A]
Tumor cell lines
  anti-proliferative IC50's: low nM range
[2]
  inhibition of human coronary artery smooth muscle cell proliferation: completely inhibit
[2]; human coronary artery smooth muscle cells, read-out: anti-proliferative IC50
  IC50: ~6 nM

## Tocopherol
[3]; five days at 60° C.
  protection of sirolimus against degradation: significant protection
[3]; four weeks at 60° C., higher percent concentrations of antioxidant
  protection of sirolimus against degradation: significant protection

## COc1cc([C@@H]2c3cc4c(cc3[C@@H](O[C@@H]3O[C@@H]5CO[C@@H](C)O[C@H]5[C@H](O)[C@H]3O)[C@H]3COC(=O)[C@H]23)OCO4)cc(OC)c1O [etoposide]
[1]
  effect on the anti-proliferative activity of rapamycin: increases the percent inhibition of rapamycin alone
Cell viability; concentrations up to ten micromolar
  cytotoxicity: non-cytotoxic

## O=C1O[C@H]([C@@H](O)CO)C(O)=C1O [Ascorbic Acid]
[3]
  protection of sirolimus against degradation: significant protection

## Cc1cc(C(C)(C)C)c(O)c(C(C)(C)C)c1 [BHT, Butylated Hydroxytoluene]
[3]
  protection of sirolimus against degradation: significant protection
[4]
  percent drug content change on stent: lessens drug degradation

## COc1cc2c(cc1O)CC[C@@H]1[C@@H]2CC[C@]2(C)[C@@H](O)CC[C@@H]12 [Panzem®, 2-methoxyestradiol]
[1]
  effect on the anti-proliferative activity of rapamycin: increases the percent of inhibition of rapamycin alone
[1]; two percent fetal bovine serum
  anti-proliferative activity: extremely effective inhibitor
[5]
  cytotoxicity (MTS assay): do not reduce human coronary artery smooth muscle cell survival

## Nc1nc(Cl)nc2c1ncn2[C@H]1C[C@H](O)[C@@H](CO)O1 [Cladribine, 2-chlorodeoxyadenosine]
[6]; EVA/BMA basecoat, BMA topcoat, Bx Velocity stents, Yorkshire pigs
  in vivo elution from coating relative to rapamycin: elutes more rapidly than rapamycin
[6]; PVDF/HFP 85/15 basecoat and topcoat, Bx Velocity stents, Yorkshire pig, after the first day
  in vivo elution from coating: levels off significantly
[7]
  potency on smooth muscle cells relative to endothelial cells: approximately twice as potent
[8]
  effect on the anti-proliferative activity of rapamycin: increases the percent inhibition of rapamycin alone
[8]; non-synchronized, two percent fetal bovine serum
  inhibition of human coronary artery smooth muscle cell proliferation: completely inhibits

## CO[C@H]1C[C@@H]2CC[C@@H](C)[C@@](O)(O2)C(=O)C(=O)N2CCCC[C@H]2C(=O)O[C@H]([C@H](C)C[C@@H]2CC[C@@H](O)[C@H](OC)C2)CC(=O)[C@H](C)/C=C(\C)[C@@H](O)[C@@H](OC)C(=O)[C@H](C)C[C@H](C)/C=C/C=C/C=C/1C [Rapamycin, rapamycin]
[6]; pig, in vivo
  in vivo release rate from coating: slower release rate than that of mycophenolic acid
[9]; 4 mg/ml formulation with PEG 200, ethanol and water
  concentration relative to the solubility of sirolimus in water: four hundred to about one thousand

## COc1c(C)c2c(c(O)c1C/C=C(\C)CCC(=O)O)C(=O)OC2 [mycophenolic acid]
[8]
  effect on the anti-proliferative activity of rapamycin: potentiates the anti-proliferative activity of rapamycin

## CO[C@H]1C[C@@H]2CC[C@@H](C)[C@@](O)(O2)C(=O)C(=O)N2CCCC[C@H]2C(=O)O[C@H]([C@H](C)C[C@@H]2CC[C@@H](OC(=O)C(C)(CO)CO)[C@H](OC)C2)CC(=O)[C@H](C)/C=C(\C)[C@@H](O)[C@@H](OC)C(=O)[C@H](C)C[C@H](C)/C=C/C=C/C=C/1C [CCI-779]
[9]; water and ethanol (less than two percent) as co-solvents, Vitamin E TPGS as excipient
  concentration in the final solution (HPLC assay): 15000 µg/mL
